According to US20250213575A1, “8-HETEROCYCLIC-3-(PHENYLSULFONYL)-[1,2,3]TRIAZOLO[1,5A]QUINAZOLIN-5(4H)-ONE DERIVATIVES AS ANTI-BACTERIALS” (priority 2022, published 2025):

Target: AgrA (Staphylococcus aureus, UniProt P0A0I7)
Test: cell-based
Design: species or system S. aureus USA300 strain UAMS-1625
Settings: for Ratio IC50 (in presence of HSA)/IC50 (in absence of HSA): 40 mg/mL HSA vs without HSA
[1] = IC50 at 40 mg/mL HSA, LB medium supplemented with 40 mg/mL human serum albumin
[2] = IC50 without HSA, LB medium, without HSA

Sequence of AgrA (P0A0I7 whole entry): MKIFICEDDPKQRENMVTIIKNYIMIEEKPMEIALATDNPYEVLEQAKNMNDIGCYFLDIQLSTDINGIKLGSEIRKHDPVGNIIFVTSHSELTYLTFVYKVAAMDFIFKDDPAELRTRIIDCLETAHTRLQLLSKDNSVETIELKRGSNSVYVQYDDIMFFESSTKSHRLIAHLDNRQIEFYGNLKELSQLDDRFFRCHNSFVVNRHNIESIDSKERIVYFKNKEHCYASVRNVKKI

Cc1ccc(S(=O)(=O)c2nnn3c2[nH]c(=O)c2ccc(N4CC5(COC5)C4)cc23)c(C)c1 [Compound 13, 3-(2,4-dimethylbenzenesulfonyl)-8-{2-oxa-6-azaspiro[3.3]heptan-6-yl}-4H,5H-[1,2,3]triazolo[1,5-a]quinazolin-5-one]
Ratio IC50 (in presence of HSA)/IC50 (in absence of HSA): ++ (ratio ≤ 125) | IC50 [1]: 22.1 to 111 µM | IC50 [2]: < 2.21 µM

Cc1ccc(S(=O)(=O)c2nnn3c2[nH]c(=O)c2ccc(N4CC5(CN(C)C5)C4)cc23)c(C)c1 [Compound 14, 3-(2,4-dimethylbenzenesulfonyl)-8-{6-methyl-2,6-diazaspiro[3.3]heptan-2-yl}-4H,5H-[1,2,3]triazolo[1,5-a]quinazolin-5-one]
Ratio IC50 (in presence of HSA)/IC50 (in absence of HSA): +++ (ratio ≤ 25) | IC50 [1]: 21.5 to 108 µM | IC50 [2]: 2.15 to 10.8 µM

Cc1ccc(S(=O)(=O)c2n[nH]n3c2nc(=O)c2ccc(N4CCC5(CC4)CNCCO5)cc23)c(C)c1 [Compound 15, 3-(2,4-dimethylbenzenesulfonyl)-8-{1-oxa-4,9-diazaspiro[5.5]undecan-9-yl}-1H,5H-[1,2,3]triazolo[1,5-a]quinazolin-5-one]
Ratio IC50 (in presence of HSA)/IC50 (in absence of HSA): +++ (ratio ≤ 25) | IC50 [1]: 19.7 to 98.3 µM | IC50 [2]: < 1.97 µM

Cc1ccc(S(=O)(=O)c2n[nH]n3c2nc(=O)c2ccc(N4CCC5(CC4)CN(C)CCO5)cc23)c(C)c1 [Compound 16, 3-(2,4-dimethylbenzenesulfonyl)-8-{4-methyl-1-oxa-4,9-diazaspiro[5.5]undecan-9-yl}-1H,5H-[1,2,3]triazolo[1,5-a]quinazolin-5-one]
Ratio IC50 (in presence of HSA)/IC50 (in absence of HSA): ++ (ratio ≤ 125) | IC50 [1]: 19.1 to 95.7 µM | IC50 [2]: < 1.91 µM

Cc1ccc(S(=O)(=O)c2n[nH]n3c2nc(=O)c2ccc(N4CCOC5(CCNCC5)C4)cc23)c(C)c1 [Compound 17, 3-(2,4-dimethylbenzenesulfonyl)-8-{1-oxa-4,9-diazaspiro[5.5]undecan-4-yl}-1H,5H-[1,2,3]triazolo[1,5-a]quinazolin-5-one]
Ratio IC50 (in presence of HSA)/IC50 (in absence of HSA): +++ (ratio ≤ 25) | IC50 [1]: 19.7 to 98.3 µM | IC50 [2]: 1.97 to 9.83 µM

Cc1ccc(S(=O)(=O)c2n[nH]n3c2nc(=O)c2ccc(N4CCOC5(CCN(C)CC5)C4)cc23)c(C)c1 [Compound 18, 3-(2,4-dimethylbenzenesulfonyl)-8-{9-methyl-1-oxa-4,9-diazaspiro[5.5]undecan-4-yl}-1H,5H-[1,2,3]triazolo[1,5-a]quinazolin-5-one]
Ratio IC50 (in presence of HSA)/IC50 (in absence of HSA): +++ (ratio ≤ 25) | IC50 [1]: 19.1 to 95.7 µM | IC50 [2]: 1.91 to 9.57 µM

Cc1ccc(S(=O)(=O)c2n[nH]n3c2nc(=O)c2ccc(N4CCC5(CCNC[C@@H]5O)CC4)cc23)c(C)c1 [Compound 19, 3-(2,4-dimethylbenzenesulfonyl)-8-[(7R)-7-hydroxy-3,9-diazaspiro[5.5]undecan-3-yl]-1H,5H-[1,2,3]triazolo[1,5-a]quinazolin-5-one]
Ratio IC50 (in presence of HSA)/IC50 (in absence of HSA): +++ (ratio ≤ 25) | IC50 [1]: 19.1 to 95.7 µM | IC50 [2]: 1.91 to 9.57 µM

Cc1ccc(S(=O)(=O)c2n[nH]n3c2nc(=O)c2ccc(N4CC5(CC(O)C5)C4)cc23)c(C)c1 [Compound 20, 3-(2,4-dimethylbenzenesulfonyl)-8-{6-hydroxy-2-azaspiro[3.3]heptan-2-yl}-1H,5H-[1,2,3]triazolo[1,5-a]quinazolin-5-one]
Ratio IC50 (in presence of HSA)/IC50 (in absence of HSA): ++ (ratio ≤ 125) | IC50 [1]: 21.5 to 107 µM | IC50 [2]: < 2.15 µM

Cc1ccc(S(=O)(=O)c2n[nH]n3c2nc(=O)c2ccc(N4CC5(C4)CC(C)(O)C5)cc23)c(C)c1 [Compound 21, 3-(2,4-dimethylbenzenesulfonyl)-8-{6-hydroxy-6-methyl-2-azaspiro[3.3]heptan-2-yl}-1H,5H-[1,2,3]triazolo[1,5-a]quinazolin-5-one]
Ratio IC50 (in presence of HSA)/IC50 (in absence of HSA): ++ (ratio ≤ 125) | IC50 [1]: 20.9 to 104 µM | IC50 [2]: < 2.09 µM

Cc1ccc(S(=O)(=O)c2nnn3c2[nH]c(=O)c2ccc(N4CCN(C)CC4)cc23)c(C)c1 [Compound 22, 3-(2,4-dimethylbenzenesulfonyl)-8-(4-methylpiperazin-1-yl)-4H,5H-[1,2,3]triazolo[1,5-a]quinazolin-5-one]
Ratio IC50 (in presence of HSA)/IC50 (in absence of HSA): +++ (ratio ≤ 25) | IC50 [1]: 22.1 to 110 µM | IC50 [2]: < 2.21 µM

Cc1ccc(S(=O)(=O)c2nnn3c2[nH]c(=O)c2ccc(N4C[C@@H](C)N[C@@H](C)C4)cc23)c(C)c1 [Compound 24, 3-(2,4-dimethylbenzenesulfonyl)-8-[(3R,5S)-3,5-dimethylpiperazin-1-yl]-4H,5H-[1,2,3]triazolo[1,5-a]quinazolin-5-one]
Ratio IC50 (in presence of HSA)/IC50 (in absence of HSA): +++ (ratio ≤ 25) | IC50 [1]: 21.4 to 107 µM | IC50 [2]: 2.14 to 10.7 µM

Cc1ccc(S(=O)(=O)c2nnn3c2[nH]c(=O)c2ccc(N4C[C@@H](C)N(C)[C@@H](C)C4)cc23)c(C)c1 [Compound 25, rac-3-(2,4-dimethylbenzenesulfonyl)-8-[(3R,5S)-3,4,5-trimethylpiperazin-1-yl]-4H,5H-[1,2,3]triazolo[1,5-a]quinazolin-5-one]
Ratio IC50 (in presence of HSA)/IC50 (in absence of HSA): +++ (ratio ≤ 25) | IC50 [1]: < 20.8 µM | IC50 [2]: < 2.08 µM

Cc1ccc(S(=O)(=O)c2nnn3c2[nH]c(=O)c2ccc(N4CC(C)NC(C)C4)cc23)c(C)c1 (stereo not drawn) [Compound 26, 3-(2,4-dimethylbenzenesulfonyl)-8-(3,5-dimethylpiperazin-1-yl)-4H,5H-[1,2,3]triazolo[1,5-a]quinazolin-5-one]
Ratio IC50 (in presence of HSA)/IC50 (in absence of HSA): +++ (ratio ≤ 25) | IC50 [1]: 21.4 to 107 µM | IC50 [2]: 2.14 to 10.7 µM

Cc1ccc(S(=O)(=O)c2nnn3c2[nH]c(=O)c2ccc(N4CC(C)N(C)C(C)C4)cc23)c(C)c1 (stereo not drawn) [Compound 27, 3-(2,4-dimethylbenzenesulfonyl)-8-(3,4,5-trimethylpiperazin-1-yl)-4H,5H-[1,2,3]triazolo[1,5-a]quinazolin-5-one]
Ratio IC50 (in presence of HSA)/IC50 (in absence of HSA): +++ (ratio ≤ 25) | IC50 [1]: 20.8 to 104 µM | IC50 [2]: < 2.08 µM

Cc1ccc(S(=O)(=O)c2nnn3c2[nH]c(=O)c2ccc(N4CCN(C)C(C)(C)C4)cc23)c(C)c1 [Compound 29, 3-(2,4-dimethylbenzenesulfonyl)-8-(3,3,4-trimethylpiperazin-1-yl)-4H,5H-[1,2,3]triazolo[1,5-a]quinazolin-5-one]
Ratio IC50 (in presence of HSA)/IC50 (in absence of HSA): ++ (ratio ≤ 125) | IC50 [1]: 20.8 to 104 µM | IC50 [2]: 2.08 to 10.4 µM

Cc1ccc(S(=O)(=O)c2nnn3c2[nH]c(=O)c2ccc(N4CCN5CCOCC5C4)cc23)c(C)c1 (stereo not drawn) [Compound 30, 3-(2,4-dimethylbenzenesulfonyl)-8-{octahydropyrazino[2,1-c][1,4]oxazin-8-yl}-4H,5H-[1,2,3]triazolo[1,5-a]quinazolin-5-one]
Ratio IC50 (in presence of HSA)/IC50 (in absence of HSA): +++ (ratio ≤ 25) | IC50 [1]: 20.2 to 101 µM | IC50 [2]: 2.02 to 10.1 µM

CNC1CCN(c2ccc3c(=O)[nH]c4c(S(=O)(=O)c5ccc(C)cc5C)nnn4c3c2)CC1 [Compound 31, 3-(2,4-dimethylbenzenesulfonyl)-8-[4-(methylamino)piperidin-1-yl]-4H,5H-[1,2,3]triazolo[1,5-a]quinazolin-5-one]
Ratio IC50 (in presence of HSA)/IC50 (in absence of HSA): +++ (ratio ≤ 25) | IC50 [1]: 21.4 to 107 µM | IC50 [2]: < 2.14 µM

Cc1ccc(S(=O)(=O)c2nnn3c2[nH]c(=O)c2ccc(N4CCC(N(C)C)CC4)cc23)c(C)c1 [Compound 32, 8-[4-(dimethylamino)piperidin-1-yl]-3-(2,4-dimethylbenzenesulfonyl)-4H,5H-[1,2,3]triazolo[1,5-a]quinazolin-5-one]
Ratio IC50 (in presence of HSA)/IC50 (in absence of HSA): +++ (ratio ≤ 25) | IC50 [1]: 20.8 to 104 µM | IC50 [2]: 2.08 to 10.4 µM

Cc1ccc(S(=O)(=O)c2nnn3c2[nH]c(=O)c2ccc(N4CCC(N)CC4)cc23)c(C)c1 [Compound 33, 8-(4-aminopiperidin-1-yl)-3-(2,4-dimethylbenzenesulfonyl)-4H,5H-[1,2,3]triazolo[1,5-a]quinazolin-5-one]
Ratio IC50 (in presence of HSA)/IC50 (in absence of HSA): +++ (ratio ≤ 25) | IC50 [1]: < 22.1 µM | IC50 [2]: < 2.21 µM

CNC1CCN(c2ccc3c(=O)[nH]c4c(S(=O)(=O)c5ccc(C)cc5C)nnn4c3c2)C1 (stereo not drawn) [Compound 34, 3-(2,4-dimethylbenzenesulfonyl)-8-[3-(methylamino)pyrrolidin-1-yl]-4H,5H-[1,2,3]triazolo[1,5-a]quinazolin-5-one]
Ratio IC50 (in presence of HSA)/IC50 (in absence of HSA): ++ (ratio ≤ 125) | IC50 [1]: 22.1 to 110 µM | IC50 [2]: < 2.21 µM

Cc1ccc(S(=O)(=O)c2nnn3c2[nH]c(=O)c2ccc(N4CC[C@@H](N)C4)cc23)c(C)c1 [Compound 35, 8-[(3R)-3-aminopyrrolidin-1-yl]-3-(2,4-dimethylbenzenesulfonyl)-4H,5H-[1,2,3]triazolo[1,5-a]quinazolin-5-one]
Ratio IC50 (in presence of HSA)/IC50 (in absence of HSA): +++ (ratio ≤ 25) | IC50 [1]: 22.8 to 114 µM | IC50 [2]: < 2.28 µM

Cc1ccc(S(=O)(=O)c2nnn3c2[nH]c(=O)c2ccc(N4CCN5CCCC5C4)cc23)c(C)c1 (stereo not drawn) [Compound 36, 3-(2,4-dimethylbenzenesulfonyl)-8-{octahydropyrrolo[1,2-a]pyrazin-2-yl}-4H,5H-[1,2,3]triazolo[1,5-a]quinazolin-5-one]
Ratio IC50 (in presence of HSA)/IC50 (in absence of HSA): +++ (ratio ≤ 25) | IC50 [1]: 20.9 to 104 µM | IC50 [2]: < 2.09 µM

Cc1ccc(S(=O)(=O)c2nnn3c2[nH]c(=O)c2ccc(N4CCN5CCC[C@H]5C4)cc23)c(C)c1 [Compound 37, 8-[(8aS)-octahydropyrrolo[1,2-a]pyrazin-2-yl]-3-(2,4-dimethylbenzenesulfonyl)-4H,5H-[1,2,3]triazolo[1,5-a]quinazolin-5-one]
Ratio IC50 (in presence of HSA)/IC50 (in absence of HSA): +++ (ratio ≤ 25) | IC50 [1]: 20.9 to 104 µM | IC50 [2]: 2.09 to 10.4 µM

Cc1ccc(S(=O)(=O)c2nnn3c2[nH]c(=O)c2ccc(N4CCN5CCC[C@@H]5C4)cc23)c(C)c1 [Compound 38, 8-[(8aR)-octahydropyrrolo[1,2-a]pyrazin-2-yl]-3-(2,4-dimethylbenzenesulfonyl)-4H,5H-[1,2,3]triazolo[1,5-a]quinazolin-5-one]
Ratio IC50 (in presence of HSA)/IC50 (in absence of HSA): +++ (ratio ≤ 25) | IC50 [1]: 20.9 to 104 µM | IC50 [2]: 2.09 to 10.4 µM
